Here are results for 9 compounds from US20240262826A1, “WILD TYPE KIT INHIBITORS” (Blueprint Medicines Corporation, priority 2022, published 2024).

Series [1] deals with Exon 11 KIT (Homo sapiens (Human), UniProt P10721, V560G). Description: Exon 11 HMC1.1 autophosphorylation assay (Phospho-Y719 c-KIT ELISA). The class given is cell-based. The conditions noted are these: 90 minutes, read-out: IC50 HMC1.1 pKIT. The method, then: Exon 11 HMC1.1 autophosphorylation assay: 50,000 HMC1.1 cells were incubated in 50 ul culture media (phenol-red free IMDM, no iron, no serum) in each well of a 96-well plate and serum starved 4 hours in a tissue culture incubator (5% CO2, 37° C.). An 8-point dose concentration series of compound were then added to the cells in a volume of 7 ul to each well. After 90 minutes, 14 ul of 5× AlphaLISA Lysis Buffer (Perkin Elmer) supplemented with a protease and phosphatase inhibitor cocktail (Cell Signaling Technologies) was added to each well and shaken at […] for 5 minutes at 4° C. Phospho-Y719 c-KIT ELISA kit from Cell Signaling Technology was used to assess levels of phospho KIT.
On the technique in general: ELISA stands for enzyme-linked immunosorbent assay.

The target in series [2] is human P-glycoprotein (P-gp, MDR1) (Homo sapiens (Human), UniProt P08183). Nature of the series: MDCK-MDR1 cell monolayer drug transport assay (P-gp efflux ratio). The format is in vitro ADME. The conditions noted are these: pH 7.4, MDCK-MDR1 cells, 1 uM concentration of compound, read-out: Pgp Efflux Ratio, 1 uM. The gist of the method: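 P-gp substrate potential tested in MDCK-MDR1 monolayers on Transwell supports, cultured 4-8 days; monolayers with TEER <42 ohms·cm2 discarded. Transport run in HBSS (10 mM HEPES, pH 7.4) at 37° C with compound working solution at 1 μM.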

Series [3] has as its target wild type c-kit (Homo sapiens (Human), UniProt P10721). Description: PathScan phospho c-kit (Tyr719) sandwich ELISA in SCF-stimulated M-07e cells (pKIT assay). The format is cell-based. Particulars: ELISA assay (values not marked *). The gist of the method:
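Tyr719-phosphorylated c-kit was measured by colorimetric (TMB) sandwich ELISA in lysates of M-07e cells. Cells were starved 4 h without serum or GM-CSF, dosed 60 min at 37 °C with compound (8 points, duplicate, 0.25% DMSO), and stimulated 10 min with human SCF (500 ng/mL as added). IC50 values came from 4-parameter logistic regression.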

The subject of series [4] is NIH3T3 parental cells. Description: Exon 9 assay, parental cells: cell viability (CellCounting Lite 2.0), 72 hours. The format is cell-based. The conditions noted are these: Mus musculus. Here is the method:
(§1) Exon 9 assay: The NIH3T3 cell lines that overexpressed the kit mutation exon 9 (or parental cells) were resuscitated and well cultured, and the cells were collected and seeded in 96-well plates at 3000/well, then the compounds were added to the 96 well plates in a gradient dilution, and the plates were incubated in an incubator for 72 hours.
(§2) After 72 hours of incubation, an equal volume of CellCounting
(§3) Lite 2.0 Luminescent Cell Viability reagent was added to the 96-well plates to detect the cell viability. The data were analyzed using GraphPad Prism 7.0 softwar e, and the nonlinear S-curve regression was used to fit the data to obtain the dose-effect curve, and the IC50 value was calculated accordingly.

The subject of series [5] is NIH3T3 cell lines that overexpressed the kit mutation exon 9. Description: Exon 9 assay: cell viability (CellCounting Lite 2.0), 72 hours. The conditions noted are these: Mus musculus, read-out: IC50 NIH3T3-cKit-AY502-3dup. The class given is cell-based. The method, then:
as §1, §2, §3

Chain of human P-glycoprotein (P-gp, MDR1) (P08183 whole entry): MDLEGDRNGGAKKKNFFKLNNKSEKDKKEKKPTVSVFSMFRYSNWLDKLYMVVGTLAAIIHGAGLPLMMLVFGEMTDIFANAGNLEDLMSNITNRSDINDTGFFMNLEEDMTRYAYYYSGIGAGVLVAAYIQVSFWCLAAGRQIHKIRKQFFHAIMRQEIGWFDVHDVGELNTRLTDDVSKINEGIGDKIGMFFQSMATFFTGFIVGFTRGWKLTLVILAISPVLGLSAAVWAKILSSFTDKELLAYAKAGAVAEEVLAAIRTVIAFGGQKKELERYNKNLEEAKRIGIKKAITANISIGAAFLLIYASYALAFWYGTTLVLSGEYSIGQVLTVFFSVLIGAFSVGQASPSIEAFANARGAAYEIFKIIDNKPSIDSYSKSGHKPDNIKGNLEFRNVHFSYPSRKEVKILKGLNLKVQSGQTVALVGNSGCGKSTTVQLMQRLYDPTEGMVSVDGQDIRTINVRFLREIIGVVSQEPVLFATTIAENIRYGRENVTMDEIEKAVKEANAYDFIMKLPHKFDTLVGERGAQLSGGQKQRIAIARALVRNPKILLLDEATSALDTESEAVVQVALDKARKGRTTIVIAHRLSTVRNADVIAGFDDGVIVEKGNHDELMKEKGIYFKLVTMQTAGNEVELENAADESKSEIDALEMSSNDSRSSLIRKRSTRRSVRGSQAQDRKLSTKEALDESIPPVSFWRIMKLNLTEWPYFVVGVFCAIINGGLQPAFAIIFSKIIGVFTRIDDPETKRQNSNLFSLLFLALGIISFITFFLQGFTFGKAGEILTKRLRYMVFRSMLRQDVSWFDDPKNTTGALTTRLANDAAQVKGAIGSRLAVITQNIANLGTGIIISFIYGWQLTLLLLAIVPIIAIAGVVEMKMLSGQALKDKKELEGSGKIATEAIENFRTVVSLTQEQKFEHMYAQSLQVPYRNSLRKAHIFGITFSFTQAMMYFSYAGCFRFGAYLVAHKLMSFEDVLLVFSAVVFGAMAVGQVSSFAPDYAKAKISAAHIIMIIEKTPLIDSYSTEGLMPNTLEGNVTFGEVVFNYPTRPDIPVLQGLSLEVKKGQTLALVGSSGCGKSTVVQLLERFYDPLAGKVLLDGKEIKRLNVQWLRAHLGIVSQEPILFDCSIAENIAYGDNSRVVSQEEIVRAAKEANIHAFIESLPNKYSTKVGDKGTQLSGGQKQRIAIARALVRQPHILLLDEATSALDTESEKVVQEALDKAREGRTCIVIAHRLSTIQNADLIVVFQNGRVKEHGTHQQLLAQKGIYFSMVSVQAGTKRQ
Chain of Exon 11 KIT (P10721 26-976 V560G): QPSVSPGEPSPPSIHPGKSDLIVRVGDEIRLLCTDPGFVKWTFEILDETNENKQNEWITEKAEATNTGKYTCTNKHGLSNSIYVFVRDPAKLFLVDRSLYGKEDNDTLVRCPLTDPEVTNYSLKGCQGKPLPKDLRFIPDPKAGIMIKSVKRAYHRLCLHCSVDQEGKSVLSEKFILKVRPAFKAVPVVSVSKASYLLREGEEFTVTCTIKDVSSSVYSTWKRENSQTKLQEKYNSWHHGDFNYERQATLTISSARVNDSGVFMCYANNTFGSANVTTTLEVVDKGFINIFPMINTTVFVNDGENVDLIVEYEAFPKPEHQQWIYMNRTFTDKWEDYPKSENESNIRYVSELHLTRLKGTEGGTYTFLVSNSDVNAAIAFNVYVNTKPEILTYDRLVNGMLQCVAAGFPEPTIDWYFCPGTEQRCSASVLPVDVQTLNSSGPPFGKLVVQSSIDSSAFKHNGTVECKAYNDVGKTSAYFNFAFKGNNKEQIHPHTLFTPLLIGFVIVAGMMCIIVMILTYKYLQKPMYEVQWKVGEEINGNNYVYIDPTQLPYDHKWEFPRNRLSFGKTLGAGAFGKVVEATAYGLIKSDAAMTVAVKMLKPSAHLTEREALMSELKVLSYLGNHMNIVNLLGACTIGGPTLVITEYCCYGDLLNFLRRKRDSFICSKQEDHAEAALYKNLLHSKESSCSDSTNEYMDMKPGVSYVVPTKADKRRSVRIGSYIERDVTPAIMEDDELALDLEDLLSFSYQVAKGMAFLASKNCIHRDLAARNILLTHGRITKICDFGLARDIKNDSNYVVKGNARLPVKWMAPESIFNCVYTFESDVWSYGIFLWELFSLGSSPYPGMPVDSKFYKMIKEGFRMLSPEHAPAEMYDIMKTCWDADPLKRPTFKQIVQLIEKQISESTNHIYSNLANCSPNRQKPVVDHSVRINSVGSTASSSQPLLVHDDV
Chain of wild type c-kit (P10721 26-976): as the sequence (P10721 26-976 V560G) above, with G535V counted along it

Usually IC50 stands for the concentration needed to halve the response being measured. On to `COCCNc1ccn2ncc(C(=O)Nc3cc(-c4nnn(C5CN(C(=O)OC)C5)n4)ccc3C)c2c1` [Example 148, methyl 3-(5-(3-(5-((2-methoxyethyl)amino)pyrazolo[1,5-a]pyridine-3-carboxamido)-4-methylphenyl)-2H-tetrazol-2-yl)azetidine-1-carboxylate], for which the IC50 in series [1] is 1 nM; in series [3], 34.8 nM. The efflux ratio at 2 h, 1 µM in series [2] came to 24.9.
With `COC(=O)N1CC(c2cnn(-c3ccc(C)c(NC(=O)c4cnn5ccc(N6CCN(C)CC6)cc45)c3)n2)C1` [Example 81, methyl 3-(2-(4-methyl-3-(5-(4-methylpiperazin-1-yl)pyrazolo[1,5-a]pyridine-3-carboxamido)phenyl)-2H-1,2,3-triazol-4-yl)azetidine-1-carboxylate], the IC50 worked out at 6.4 nM in series [1] and 19 nM in series [3].
With `COC[C@@H](O)Cn1cc(-c2ccn3ncc(C(=O)Nc4cc(-c5nnn(C6CC6)n5)ccc4Cl)c3c2)c(C)n1` [Example 263, (S)-N-(2-chloro-5-(2-cyclopropyl-2H-tetrazol-5-yl)phenyl)-5-(1-(2-hydroxy-3-methoxypropyl)-3-methyl-1H-pyrazol-4-yl)pyrazolo[1,5-a]pyridine-3-carboxamide], the IC50 in series [1] was 0.2 nM; in series [4], 123 nM; in series [5] it was 2 nM; in series [3], 0.2 nM. For the same compound, the efflux ratio at 2 h, 1 µM in series [2] came to 3.
Regarding `CCn1nnc(-c2ccc(Cl)c(NC(=O)c3cnn4ccc(-c5cn(C[C@H](O)COC)nc5C)cc34)c2)n1` [Example 284, (S)—N-(2-chloro-5-(2-ethyl-2H-tetrazol-5-yl)phenyl)-5-(1-(2-hydroxy-3-methoxypropyl)-3-methyl-1H-pyrazol-4-yl)pyrazolo[1,5-a]pyridine-3-carboxamide], the IC50 in series [1] was 0.2 nM; in series [4] it was 161 nM; in series [5], 7.5 nM; in series [3] it was 0.2 nM.
`COCCOC[C@H](O)Cn1cc(-c2ccn3ncc(C(=O)Nc4cc(-c5nnn(C6CC6)n5)c(F)cc4Cl)c3c2)c(C)n1` [Example 286, (R)—N-(2-chloro-5-(2-cyclopropyl-2H-tetrazol-5-yl)-4-fluorophenyl)-5-(1-(2-hydroxy-3-(2-methoxyethoxy)propyl)-3-methyl-1H-pyrazol-4-yl)pyrazolo[1,5-a]pyridine-3-carboxamide]: the IC50 was 480 nM in series [4], 42.5 nM in series [5] and 0.3 nM in series [3].
On to `Cc1nn(C[C@H](C)O)cc1-c1ccn2ncc(C(=O)Nc3cc(-c4nnn(C5CC5)n4)ccc3Cl)c2c1` [Example 278, (S)—N-(2-chloro-5-(2-cyclopropyl-2H-tetrazol-5-yl)phenyl)-5-(1-(2-hydroxypropyl)-3-methyl-1H-pyrazol-4-yl)pyrazolo[1,5-a]pyridine-3-carboxamide], for which the IC50 worked out at 0.2 nM in series [1] and 0.3 nM in series [3]. In addition, the efflux ratio at 2 h, 1 µM in series [2] turned out to be 3.6.
Consider `COC[C@@H](O)Cn1cc(-c2ccn3ncc(C(=O)Nc4cc(-c5nnn(C6CC6)n5)ccc4Cl)c3c2)cn1` [Example 237, (S)-N-(2-chloro-5-(2-cyclopropyl-2H-tetrazol-5-yl)phenyl)-5-(1-(2-hydroxy-3-methoxypropyl)-1H-pyrazol-4-yl)pyrazolo[1,5-a]pyridine-3-carboxamide], for which the IC50 in series [1] is 0.7 nM; in series [5], 15.6 nM; in series [3], 0.5 nM. Besides, the efflux ratio at 2 h, 1 µM in series [2] turned out to be 3.2.
As for `Cc1nn(C[C@H](C)O)cc1-c1ccn2ncc(C(=O)Nc3cc(-c4nnn(C5CC5)n4)c(F)cc3Cl)c2c1` [Example 280, (S)—N-(2-chloro-5-(2-cyclopropyl-2H-tetrazol-5-yl)-4-fluorophenyl)-5-(1-(2-hydroxypropyl)-3-methyl-1H-pyrazol-4-yl)pyrazolo[1,5-a]pyridine-3-carboxamide], the results for the IC50 in series [4], in series [5] and in series [3] were 413 nM, 10 nM and 0.2 nM, respectively.
As to `Cc1cc(F)c(-c2nnn(C3CC3)n2)cc1NC(=O)c1cnn2ccc(-c3cn(CC(C)(C)O)nc3C)cc12` [Example 239, N-(5-(2-cyclopropyl-2H-tetrazol-5-yl)-4-fluoro-2-methylphenyl)-5-(1-(2-hydroxy-2-methylpropyl)-3-methyl-1H-pyrazol-4-yl)pyrazolo[1,5-a]pyridine-3-carboxamide], the results for the IC50 in series [1] and in series [3] were 0.9 nM and 0.3 nM, respectively. The efflux ratio at 2 h, 1 µM in series [2] was 13.2.
